Results: patent publication US11535597B2, “Photoreactive ligands and uses thereof” (The Scripps Research Institute, priority 2017, dated 2022)
Entries after “also recorded” stand apart in the source; their conditions may differ.

Key:
[1] = tested on: proteins in HEK293T cells; assay: MS-based mapping of FFF probe-modified peptides (isoTOP, sites of labeling); assay type: binding, human
Procedure: Preparation and analysis was adapted from methods previously reported. In brief, for global mapping of fragment probe-modified peptides, separate 10 cm dishes of cells were treated with probes (200-250 μM) in 3.0 mL of DMEM (serum-free) and (if applicable) competitor ligands, proteomes harvested and subjected to click chemistry conditions with either light or heavy isotopically labeled biotin-TEV-azide (10 μL of 5 mM stocks in DMSO, final concentration=100 μM), TCEP, ligand and CuSO4 as detailed above. The samples were allowed to react for 1 h at which point the samples were centrifuged (16,000 g, 5 min, 4° C.). The resulting pellets were sonicated in ice-cold methanol (500 μL) and the resuspended light- and heavy-labeled samples were then combined and centrifuged (16,000 g, 5 min, 4° C.). The pellets were then solubilized in PBS containing 1.2% SDS (1 mL) with sonication and heating (5 min, 95° C.). Samples were transferred to falcon tubes containing DPBS (5 mL), to which a 100 μL of streptavidin-agarose beads slurry was added. After incubation, the beads (3 hr) were pelleted by centrifugation (1,400 g, 3 min) and were washed (2×10 mL PBS and 2×10 mL water). The beads were transferred to eppendorf tubes with 1 mL DPBS, centrifuged (1,400 g, 3 min), and resuspended in PBS containing 6 M urea. To this was added 10 mM DTT (25 μL of a 200 mM stock in water) and the beads were incubated at 65° C. for 15 mins. 20 mM iodoacetamide (25 μL of a 400 mM stock in water) was then added and allowed to react at 37° C. for 30 mins with shaking. The bead mixture was diluted with 900 μL PBS, pelleted by centrifugation (1,400 g, 3 min), and resuspended in 200 μL 2M urea (DPBS) containing trypsin and CaCl2 as described above. The beads were separated from the digest by centrifugation (1,000 g, 1 min), washed (2×1 mL PBS and 2×1 mL water) and then transferred to fresh eppendorfs with 1 mL water. The washed beads were washed once further in 150 μL TEV buffer (50 mM Tris, pH 8, 0.5 mM EDTA, 1 mM DTT) by centrifugation (1,400 g, 3 min) and the resuspended in 150 μL TEV buffer. 5 μL TEV protease (80 μM) was added and the reactions were rotated overnight at 29° C. The TEV digest was separated from the beads by centrifugation (1,400 g, 3 min) and the beads were washed once with water (100 μL). The samples were then acidified to a final concentration of 5% (v/v) formic acid and stored at −80° C. prior to analysis.
The resulting probe-modified peptides were collected for MS analysis, which was performed as described above with differences in the salt bumps applied in the chromatographic gradients which in this case were 0%, 30%, 60%, 90% and 100% NH4OAc (500 μM). The protein identification searches of the MS data were performed with the following changes applied to identify the peptides modified with the corresponding fragment probe and the cleaved TEV tag. All amino acids were considered as possible residues for modification. To facilitate the computational searches, sets of up to 3 amino acids were searched using ProLuCID and filtered with DTASelect as described above. […] The isoTOP ratios for probe labeled peptides were quantified using the in-house software CIMAGE.
For each protein in the site-of-labeling dataset, the UniProtKB accession number was used to map and collect relevant structures from the RCSB Protein Data Bank (PDB) fulfilling the following criteria: structures determined by X-ray crystallography, wild-type protein, Homo sapiens as the sole source organism. […] Fpocket 2.0 was used to detect potential binding pockets for the resultant structures with all parameters set at recommended default. Pockets with volume less than 500 Å^3 were removed from output prior to further analysis. Residues surrounding fpocket predicted binding pockets for each protein were collected to determine the number of residues overlapping with isoTOP peptides.

[2] = target: T1, PTGR2 (Homo sapiens, UniProt Q8N8N7); assay: Mapping and competition of FFF 8-modified tryptic peptides on PTGR2; assay type: binding; settings: near the active site
T1 sequence (Q8N8N7 whole entry, the tested form may be a part): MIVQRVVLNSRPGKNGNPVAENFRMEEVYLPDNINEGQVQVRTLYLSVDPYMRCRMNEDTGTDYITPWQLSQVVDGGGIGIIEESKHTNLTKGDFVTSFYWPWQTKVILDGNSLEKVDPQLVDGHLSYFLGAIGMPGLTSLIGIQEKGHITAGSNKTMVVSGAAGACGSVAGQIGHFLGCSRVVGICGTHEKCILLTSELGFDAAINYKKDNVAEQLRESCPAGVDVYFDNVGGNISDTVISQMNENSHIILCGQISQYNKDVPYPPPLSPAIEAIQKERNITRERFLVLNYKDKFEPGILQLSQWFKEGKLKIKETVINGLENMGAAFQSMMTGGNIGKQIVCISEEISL
Procedure: (§1) Preparation and analysis was adapted from methods previously reported. In brief, for global mapping of fragment probe-modified peptides, separate 10 cm dishes of cells were treated with probes (200-250 μM) in 3.0 mL of DMEM (serum-free) and (if applicable) competitor ligands, proteomes harvested and subjected to click chemistry conditions with either light or heavy isotopically labeled biotin-TEV-azide (10 μL of 5 mM stocks in DMSO, final concentration=100 μM), TCEP, ligand and CuSO4 as detailed above. The samples were allowed to react for 1 h at which point the samples were centrifuged (16,000 g, 5 min, 4° C.). The resulting pellets were sonicated in ice-cold methanol (500 μL) and the resuspended light- and heavy-labeled samples were then combined and centrifuged (16,000 g, 5 min, 4° C.). The pellets were then solubilized in PBS containing 1.2% SDS (1 mL) with sonication and heating (5 min, 95° C.). Samples were transferred to falcon tubes containing DPBS (5 mL), to which a 100 μL of streptavidin-agarose beads slurry was added. […]
(§2) The resulting probe-modified peptides were collected for MS analysis, which was performed as described above with differences in the salt bumps applied in the chromatographic gradients which in this case were 0%, 30%, 60%, 90% and 100% NH4OAc (500 μM). […] The isoTOP ratios for probe labeled peptides were quantified using the in-house software CIMAGE. […]

[3] = target: T1, PTGR2; settings: only reported inhibitor of PTGR2; read-out: in vitro IC50 (PTGR2); cited from earlier work
[4] = target: T2, cathepsin B (CTSB) (Homo sapiens, UniProt P07858); assay: Mapping and competition of FFF probe-modified peptide on cathepsin B (CTSB); assay type: binding; settings: HEK293T cells co-treated with 9 (200 μM)
T2 construct: endogenous in cells; host or cells: HEK293T
Procedure: as §1, §2

[5] = tested on: proteins in HEK293T cells; assay: Gel-based profiling of FFF probe-protein labeling in cells; assay type: binding, human; settings: 20 μM, 30 min, UV
Procedure: For gel-based experiments, cells were grown in 6-well plates to ˜90% confluence at the time of treatment. Cells were carefully washed with Dulbecco's phosphate buffered saline (DPBS) and replenished with fresh serum-free media containing indicated FFF probe, and, if applicable, competitors or DMSO vehicle (1 mL). Following incubation at 37° C. for 30 min, cells were directly exposed to 365 nm light for 10 min. For no UV experiments, cells were incubated at 4° C. for 10 min under ambient light. For MS-based experiments, cell labeling was performed in a similar manner as described above. Modifications to this protocol included using isotopically ‘light’ and ‘heavy’ SILAC cells that were grown to near complete confluence prior to treatment in 10 cm plates. […]
Cells pellets were lysed in cold DPBS (100-500 µL) using a Branson Sonifier probe sonicator (10 pulses, 30% duty cycle, output setting=4). […] Protein concentration was determined using the DC Protein Assay (Bio-Rad) and absorbance read using a Tecan, Infinite F500 plate reader following manufacturer's instructions. […]
Proteomes from treated cells were diluted to 1 mg/mL. […] Proteins (25 µg total protein loaded per gel lane) were resolved using SDS-PAGE (10% acrylamide) and visualized by in-gel fluorescence on a Hitachi FMBIO-II or a Bio-Rad ChemiDoc™ MP flatbed fluorescence scanner. […]

C#CCCC1(CCC(=O)N2CCC(c3ccccc3)CC2)N=N1 [probe 8, 3-(3-(But-3-yn-1-yl)-3H-diazirin-3-yl)-1-(4-phenylpiperidin-1-yl)propan-1-one]
Labeled Peptide of HNRNPA1 Heterogeneous nuclear ribonucleoprotein A1 ([1]; Accession P09651, residues of probe-labeled peptide, family Channels, Transporters, Receptors): 233-265 | Labeled Peptide of HIST1H1C Histone H1.2 ([1]; Accession P16403, residues of probe-labeled peptide, family Transcription factors, Regulators): 65-75 | Labeled Peptide ([1]; MKI67 (P46013), residues of the probe-labeled peptide): 648-659 | Labeled Peptide ([1]; protein BAG6 (P46379), residues of probe-labeled peptide): 332-344 | Labeled Peptide ([1]; protein CCT8 T-complex protein 1 subunit theta (P50990), residues of probe-labeled peptide): 441-450 | Labeled Peptide ([1]; protein CDC37 Hsp90 co-chaperone Cdc37 (Q16543), residues of probe-labeled peptide): 287-307 | Labeled Peptide ([1]; protein DHX9 ATP-dependent RNA helicase A (Q08211), residues of probe-labeled peptide): 121-141 | Labeled Peptide ([1]; protein Q14683 SMC1A Structureal maintenance of chromosomes protein 1A): 1070-1086 | Labeled Peptide ([1]; residues of probe-labeled peptide on UBAP2L Ubiquitin-associated protein 2-like, Accession # Q14157): 239-257 | probe-modified tryptic peptides in PTGR2 [2]: aa 55-66; also recorded: aa 261-278

COc1ccc2c(c1)c(CC(=O)O)c(C)n2C(=O)c1ccc(Cl)cc1 [indomethacin]
IC50 [3]: ~200 µM

CC(NC(=O)[C@H](Cc1ccccc1)NC(=O)OCc1ccccc1)C(=O)CF (stereo partly shown) [Z-FA-FMK, reference compound]
blockade of probe 9 interaction with CTSB [4]: blocked

C#CCCC1(CCC(=O)NC)N=N1 [probe 1, 3-(3-(But-3-yn-1-yl)-3H-diazirin-3-yl)-N-methylpropanamide]
protein labeling in HEK293T cells (in-gel fluorescence) [5]: much less protein labeling
